The structures appear in SMILES notation. Calls of active or inactive are those of the source.

Experiment [1] addresses T1, cGMP-dependent protein kinase 1 (Homo sapiens, UniProt Q13976).
T1 sequence (Q13976 whole entry): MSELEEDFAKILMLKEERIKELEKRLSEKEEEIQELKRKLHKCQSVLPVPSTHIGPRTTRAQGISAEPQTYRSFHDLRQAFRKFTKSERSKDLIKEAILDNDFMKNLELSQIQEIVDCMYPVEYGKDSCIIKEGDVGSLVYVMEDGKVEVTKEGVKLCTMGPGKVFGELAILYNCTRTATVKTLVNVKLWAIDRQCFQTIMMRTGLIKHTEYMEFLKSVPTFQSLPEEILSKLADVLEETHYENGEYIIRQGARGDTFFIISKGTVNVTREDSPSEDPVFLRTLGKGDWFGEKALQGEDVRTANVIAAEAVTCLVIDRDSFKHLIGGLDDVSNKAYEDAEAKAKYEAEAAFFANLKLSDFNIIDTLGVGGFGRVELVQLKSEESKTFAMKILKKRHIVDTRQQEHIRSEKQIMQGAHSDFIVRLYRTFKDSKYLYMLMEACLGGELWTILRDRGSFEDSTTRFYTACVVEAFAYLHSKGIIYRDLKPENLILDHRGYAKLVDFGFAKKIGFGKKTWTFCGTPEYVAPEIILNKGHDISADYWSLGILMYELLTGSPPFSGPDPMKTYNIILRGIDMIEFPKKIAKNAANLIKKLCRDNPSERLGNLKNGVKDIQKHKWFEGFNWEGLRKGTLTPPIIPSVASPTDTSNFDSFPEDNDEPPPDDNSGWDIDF

The target in experiment [2] is Mitogen-activated protein kinase 1 (Homo sapiens, UniProt P28482).
Mitogen-activated protein kinase 1, sequence (P28482 whole entry): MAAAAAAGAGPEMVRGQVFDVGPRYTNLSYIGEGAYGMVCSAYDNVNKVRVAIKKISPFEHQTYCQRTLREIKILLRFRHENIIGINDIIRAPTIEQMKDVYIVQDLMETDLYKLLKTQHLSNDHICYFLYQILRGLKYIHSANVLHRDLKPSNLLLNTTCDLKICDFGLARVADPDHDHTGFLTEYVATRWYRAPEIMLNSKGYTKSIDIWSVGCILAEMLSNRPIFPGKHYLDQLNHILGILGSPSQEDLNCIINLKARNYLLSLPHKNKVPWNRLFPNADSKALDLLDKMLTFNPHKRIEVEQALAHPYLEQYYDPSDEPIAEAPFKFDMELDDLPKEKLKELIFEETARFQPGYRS
Experiment [3] addresses T2, Serine/threonine-protein kinase NLK (Homo sapiens, UniProt Q9UBE8).
T2 sequence (Q9UBE8 whole entry): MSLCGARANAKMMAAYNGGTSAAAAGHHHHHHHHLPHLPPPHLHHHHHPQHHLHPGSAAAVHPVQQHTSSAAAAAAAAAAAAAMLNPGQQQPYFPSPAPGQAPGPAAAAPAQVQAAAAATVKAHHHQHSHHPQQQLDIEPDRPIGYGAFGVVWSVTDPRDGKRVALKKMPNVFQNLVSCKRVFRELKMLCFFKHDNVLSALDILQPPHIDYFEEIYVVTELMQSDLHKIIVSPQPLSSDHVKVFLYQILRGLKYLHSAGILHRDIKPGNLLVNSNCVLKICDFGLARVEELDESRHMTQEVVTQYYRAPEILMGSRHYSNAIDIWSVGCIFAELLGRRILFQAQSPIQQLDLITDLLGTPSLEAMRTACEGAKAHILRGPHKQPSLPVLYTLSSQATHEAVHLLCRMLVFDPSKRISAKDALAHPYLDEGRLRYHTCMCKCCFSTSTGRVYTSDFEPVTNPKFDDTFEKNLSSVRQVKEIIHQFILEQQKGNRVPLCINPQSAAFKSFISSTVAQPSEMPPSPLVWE

Experiment [4] has as its target Wee1-like protein kinase (Homo sapiens, UniProt P30291).
For experiment [5], the target named is 26S proteasome regulatory subunit 6B (Homo sapiens, UniProt P43686).
26S proteasome regulatory subunit 6B, sequence (P43686 whole entry): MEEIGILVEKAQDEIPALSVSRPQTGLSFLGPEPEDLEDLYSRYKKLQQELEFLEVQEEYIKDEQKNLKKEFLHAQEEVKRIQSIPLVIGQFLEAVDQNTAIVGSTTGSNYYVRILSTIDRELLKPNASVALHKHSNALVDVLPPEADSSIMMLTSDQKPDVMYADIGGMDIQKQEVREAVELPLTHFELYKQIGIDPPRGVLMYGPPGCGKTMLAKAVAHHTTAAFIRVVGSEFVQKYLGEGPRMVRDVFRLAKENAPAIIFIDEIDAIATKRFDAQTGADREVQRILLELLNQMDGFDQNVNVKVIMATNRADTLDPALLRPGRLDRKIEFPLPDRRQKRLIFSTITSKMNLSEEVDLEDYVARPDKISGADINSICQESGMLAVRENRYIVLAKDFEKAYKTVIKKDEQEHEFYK
For experiment [6], the target named is Glycogen synthase kinase-3 beta (Homo sapiens, UniProt P49841).
Glycogen synthase kinase-3 beta, sequence (P49841 whole entry): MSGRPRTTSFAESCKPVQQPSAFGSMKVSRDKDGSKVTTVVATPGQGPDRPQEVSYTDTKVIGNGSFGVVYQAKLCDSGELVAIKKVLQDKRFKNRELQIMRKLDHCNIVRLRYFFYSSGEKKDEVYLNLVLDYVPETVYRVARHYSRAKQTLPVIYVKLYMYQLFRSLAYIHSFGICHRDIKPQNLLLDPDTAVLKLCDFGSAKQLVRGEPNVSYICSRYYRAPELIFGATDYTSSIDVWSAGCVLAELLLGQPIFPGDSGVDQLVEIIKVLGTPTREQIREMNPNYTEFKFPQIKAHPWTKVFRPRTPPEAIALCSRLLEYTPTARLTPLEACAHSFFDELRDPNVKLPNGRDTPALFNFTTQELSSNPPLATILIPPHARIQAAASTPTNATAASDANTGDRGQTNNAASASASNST
Experiment [7] concerns the target T3, Structural maintenance of chromosomes protein 1A (Homo sapiens, UniProt Q14683).
T3 sequence (Q14683 whole entry): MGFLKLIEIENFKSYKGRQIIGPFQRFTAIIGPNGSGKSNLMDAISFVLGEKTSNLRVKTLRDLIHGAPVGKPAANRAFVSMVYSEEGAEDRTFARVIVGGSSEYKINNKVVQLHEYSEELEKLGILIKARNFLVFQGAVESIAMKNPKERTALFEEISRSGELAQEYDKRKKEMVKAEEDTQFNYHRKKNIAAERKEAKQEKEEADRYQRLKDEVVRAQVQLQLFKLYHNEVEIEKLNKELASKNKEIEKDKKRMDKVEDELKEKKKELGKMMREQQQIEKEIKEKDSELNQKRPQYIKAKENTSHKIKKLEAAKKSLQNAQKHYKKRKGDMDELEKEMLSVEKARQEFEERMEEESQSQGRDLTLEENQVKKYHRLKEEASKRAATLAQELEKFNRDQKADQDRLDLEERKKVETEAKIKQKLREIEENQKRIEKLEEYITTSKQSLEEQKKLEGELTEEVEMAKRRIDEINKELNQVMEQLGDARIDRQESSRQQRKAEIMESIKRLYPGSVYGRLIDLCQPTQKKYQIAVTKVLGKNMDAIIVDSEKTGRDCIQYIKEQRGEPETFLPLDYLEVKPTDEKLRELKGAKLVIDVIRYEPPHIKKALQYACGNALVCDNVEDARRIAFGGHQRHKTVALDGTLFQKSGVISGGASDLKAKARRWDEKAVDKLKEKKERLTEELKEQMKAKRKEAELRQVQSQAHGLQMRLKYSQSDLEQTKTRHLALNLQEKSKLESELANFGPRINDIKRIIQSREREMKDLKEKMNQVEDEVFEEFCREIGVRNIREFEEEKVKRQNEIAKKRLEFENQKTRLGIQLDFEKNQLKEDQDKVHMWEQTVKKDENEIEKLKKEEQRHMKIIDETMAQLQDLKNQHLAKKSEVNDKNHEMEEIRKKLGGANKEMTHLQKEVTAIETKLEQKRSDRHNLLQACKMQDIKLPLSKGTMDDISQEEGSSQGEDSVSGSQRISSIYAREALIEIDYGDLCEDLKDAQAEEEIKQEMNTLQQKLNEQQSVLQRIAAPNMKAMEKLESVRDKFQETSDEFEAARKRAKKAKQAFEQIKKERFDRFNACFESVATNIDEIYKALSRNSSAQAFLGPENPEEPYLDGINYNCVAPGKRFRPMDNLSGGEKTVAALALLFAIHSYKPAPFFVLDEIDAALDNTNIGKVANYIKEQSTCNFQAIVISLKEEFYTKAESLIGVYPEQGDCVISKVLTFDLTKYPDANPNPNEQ
Also: in the data inactive means no Kd found up to 30 µM.

Wee1-like protein kinase, sequence (P30291 whole entry): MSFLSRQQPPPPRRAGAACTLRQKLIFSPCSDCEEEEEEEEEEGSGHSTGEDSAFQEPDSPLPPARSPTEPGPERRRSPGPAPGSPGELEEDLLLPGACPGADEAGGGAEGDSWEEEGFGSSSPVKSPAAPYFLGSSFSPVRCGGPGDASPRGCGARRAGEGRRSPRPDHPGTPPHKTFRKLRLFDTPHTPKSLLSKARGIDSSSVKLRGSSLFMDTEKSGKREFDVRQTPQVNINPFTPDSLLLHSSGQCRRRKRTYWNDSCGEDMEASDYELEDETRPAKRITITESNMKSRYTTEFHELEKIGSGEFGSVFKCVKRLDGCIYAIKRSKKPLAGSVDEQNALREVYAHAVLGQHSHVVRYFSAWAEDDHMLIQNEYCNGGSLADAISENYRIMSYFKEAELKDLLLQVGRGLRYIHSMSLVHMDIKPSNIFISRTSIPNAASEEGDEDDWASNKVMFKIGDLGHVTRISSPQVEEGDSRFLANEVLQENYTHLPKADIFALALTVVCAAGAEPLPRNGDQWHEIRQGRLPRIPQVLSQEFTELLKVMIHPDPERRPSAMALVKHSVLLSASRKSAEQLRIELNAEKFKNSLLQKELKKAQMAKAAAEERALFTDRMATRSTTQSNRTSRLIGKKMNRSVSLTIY

As usually defined, the Kd is the concentration at which binding is half-saturated. As to `Cc1ccc(-n2nc(C(C)(C)C)cc2NC(=O)NCc2cc(F)ccc2Oc2ccc3c(cnn3CCO)c2)cc1` [PEXMETINIB], the Kd in experiment [1], in experiment [2], in experiment [3], in experiment [4], in experiment [5] and in experiment [6] was > 30 µM (inactive) in each case. In experiment [7], the Kd was > 30 µM (inactive).
Take `CCN1CCN(Cc2ccc(-c3cc4c(N[C@H](C)c5ccccc5)ncnc4[nH]3)cc2)CC1` [AEE-788]: the Kd in experiment [1] was > 30 µM (inactive); in experiment [2], > 30 µM (inactive); in experiment [3], > 30 µM (inactive); in experiment [4] it was 65.2 µM (active); in experiment [5] it was > 30 µM (inactive); in experiment [6] it was > 30 µM (inactive). Moreover, in experiment [7], the Kd was > 30 µM (inactive).
`Cc1ccc(NC(=O)c2ccc(CN3CC[C@H](N(C)C)C3)c(C(F)(F)F)c2)cc1Nc1nccc(-c2cncnc2)n1` [BAFETINIB]: the Kd in experiment [1], in experiment [2], in experiment [3], in experiment [4], in experiment [5] and in experiment [6] was > 30 µM (inactive) in each case. The Kd in experiment [7] is > 30 µM (inactive).
With `CN(C)C(=O)c1cc2cnc(Nc3ccc(N4CCNCC4)cn3)nc2n1C1CCCC1` [RIBOCICLIB], the Kd in experiment [1], in experiment [2], in experiment [3], in experiment [4], in experiment [5] and in experiment [6] was > 30 µM (inactive) each time. Moreover, the Kd in experiment [7] was > 30 µM (inactive).
For the compound `COCCNCc1ccc(-c2cc3nccc(Oc4ccc(NC(=S)NC(=O)Cc5ccc(F)cc5)cc4F)c3s2)nc1` [GLESATINIB], the Kd in experiment [1], in experiment [2], in experiment [3], in experiment [4], in experiment [5] and in experiment [6] was > 30 µM (inactive) throughout. In experiment [7], the Kd is > 30 µM (inactive).
As to `Cn1cc(-c2ccc3nnc(C(F)(F)c4ccc5ncccc5c4)n3n2)cn1` [JNJ-38877605], the Kd in experiment [1], in experiment [2], in experiment [3], in experiment [4], in experiment [5] and in experiment [6] was > 30 µM (inactive) in each case. The Kd in experiment [7] is > 30 µM (inactive).
As to `CC[C@H](Nc1ncnc2[nH]cnc12)c1nc2cccc(F)c2c(=O)n1-c1ccccc1` [IDELALISIB], the Kd in experiment [1], in experiment [2], in experiment [3], in experiment [4], in experiment [5] and in experiment [6] was > 30 µM (inactive) in each case. In addition, the Kd in experiment [7] was > 30 µM (inactive).
For the compound `CN1CC[C@@H](c2c(O)cc(O)c3c(=O)cc(-c4ccccc4Cl)oc23)[C@@H]1CO`, the Kd in experiment [1] is > 30 µM (inactive); in experiment [2], > 30 µM (inactive); in experiment [3], 1.48 µM; in experiment [4], > 30 µM (inactive); in experiment [5], > 30 µM (inactive); in experiment [6] it was 2.72 µM (active). The Kd in experiment [7] was > 30 µM (inactive).
On to `O=C(c1ccc(F)c(F)c1Nc1ccc(I)cc1F)N1CC(O)([C@@H]2CCCCN2)C1` [COBIMETINIB], for which the Kd in experiment [1], in experiment [2], in experiment [3], in experiment [4], in experiment [5] and in experiment [6] was > 30 µM (inactive) each time. The Kd in experiment [7] is > 30 µM (inactive).
With `Cc1cc(-c2cc(O)ccc2Cl)cc2nnc(Nc3ccc(OCCN4CCCC4)cc3)nc12`, the Kd was > 30 µM (inactive) in experiment [1]; > 30 µM (inactive) in experiment [2]; 0.003 µM (active) in experiment [3]; > 30 µM (inactive) in experiment [4]; > 30 µM (inactive) in experiment [5]; > 30 µM (inactive) in experiment [6]. The Kd in experiment [7] is > 30 µM (inactive).

The values above are taken from ChEMBL document CHEMBL3991601, “The target landscape of clinical kinase drugs” (Science, 2017).
